Results taken from doi:10.1101/2025.11.13.688260v1 (biorxiv, 2025).
pIC50: −log10 of the molar value.

target: human CBL-B (Homo sapiens, UniProt Q13191); assay: TR-FRET ubiquitin ligase assay; type: biochemical
Sequence (Q13191 whole entry): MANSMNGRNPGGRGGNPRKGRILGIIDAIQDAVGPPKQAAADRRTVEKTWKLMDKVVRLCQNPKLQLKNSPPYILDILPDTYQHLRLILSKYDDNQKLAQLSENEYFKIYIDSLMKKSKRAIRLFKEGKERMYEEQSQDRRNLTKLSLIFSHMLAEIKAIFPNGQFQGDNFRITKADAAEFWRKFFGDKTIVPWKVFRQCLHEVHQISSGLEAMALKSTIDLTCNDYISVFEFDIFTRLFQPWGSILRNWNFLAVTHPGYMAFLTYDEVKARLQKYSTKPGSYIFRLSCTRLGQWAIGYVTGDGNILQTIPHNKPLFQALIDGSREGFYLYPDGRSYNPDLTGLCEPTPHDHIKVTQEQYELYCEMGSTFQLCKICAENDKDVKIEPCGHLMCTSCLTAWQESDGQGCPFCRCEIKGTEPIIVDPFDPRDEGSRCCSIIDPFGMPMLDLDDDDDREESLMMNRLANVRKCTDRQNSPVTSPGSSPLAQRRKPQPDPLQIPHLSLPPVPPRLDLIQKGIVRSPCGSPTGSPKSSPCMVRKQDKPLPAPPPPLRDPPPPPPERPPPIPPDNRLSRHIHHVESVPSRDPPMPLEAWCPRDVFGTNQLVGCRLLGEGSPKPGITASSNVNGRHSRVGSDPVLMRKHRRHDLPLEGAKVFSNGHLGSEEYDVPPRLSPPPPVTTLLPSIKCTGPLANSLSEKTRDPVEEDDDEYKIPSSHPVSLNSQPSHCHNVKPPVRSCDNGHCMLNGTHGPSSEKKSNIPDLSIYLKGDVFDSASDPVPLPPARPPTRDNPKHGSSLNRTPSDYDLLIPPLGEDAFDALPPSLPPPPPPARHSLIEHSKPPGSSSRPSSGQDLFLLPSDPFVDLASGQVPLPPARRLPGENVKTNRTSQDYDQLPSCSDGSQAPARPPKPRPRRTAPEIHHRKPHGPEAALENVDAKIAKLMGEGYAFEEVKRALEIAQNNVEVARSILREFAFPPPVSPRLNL

| Structure (SMILES) | pIC50 |
| --- | --- |
| CC(NC1CCCC1)c1ccc(F)c2cc(-c3cccc([C@]4(c5nncn5C)C[C@@H](C)C4)c3)c(=O)[nH]c12 (stereo partly drawn) [compound 12, Cmpd. 12] | 7.71 |
| C[C@H]1CCCN(Cc2cccc3cc(-c4cccc([C@]5(c6nncn6C)C[C@@H](C)C5)c4)c(=O)[nH]c23)C1 [compound 6, Cmpd. 6] | 7.77 |
| Cn1cnnc1[C@]1(c2cccc(-c3cc4ccccc4[nH]c3=O)c2)C[C@H](C)C1 [compound 4, Cmpd. 4] | 5.92 |
